According to patent publication US20170246146A1, “POLYPHENOL FOR WOUND HEALING” (IC-MedTech Corporation, priority 2012, published 2017):

Assays:
[1] = tested on: full thickness excision wounds; assay: Wound healing studies in mice; assay type: in vivo, Balbc/J male mice; settings: topical, days 0-5, by day 5, glycerin 27%
Procedure: Sixty, 5-6 week old Balbc/J male mice were ear notched for identification and housed in individually and positively ventilated polycarbonate cages with HEPA filtered air. Bed-o-cob corn cob bedding were used and cages were changed every two weeks. The animal room was lighted entirely with artificial fluorescent lighting, with a controlled 12 hr light/dark cycle. The normal temperature and relative humidity ranges in the animal rooms were 22±4° C. and 50±15%, respectively. The animal rooms were set to have 15 air exchanges per hour. Filtered tap water, acidified to a pH of 2.8 to 3.1, and rodent chow were provided ad libitum.
Following a 5 to 7 days acclimation, mice were randomized by body weight into 6 cohorts of 10 mice each. On study day 0 (D0), mice were anesthetized and two full thickness excision wounds (˜6 mm) were made on the dorsum (backs) of mice. One of the wounds was covered using a semi-occlusive polyurethane dressing (TEGADERM™). […]
Wound measurements were made on days 5, 7, 9, and 11. […] Traces were captured by scan and analyzed by a computer imaging software. […]
After being wounded, the mice had saddles applied around the wounds to prevent cross contamination and wound closure due to constriction. […] At day 5, test agents were removed and changes in wound area were measured in an effort to gauge the persistence of the compounds in the wound site.

VEGF = VEGF production (VEGF Quantiglo Immunoassay); assay type: cell-based, Human; settings: for VEGF: keratinocytes
Procedure: Human adult keratinocytes were plated into a 6 well plate and allowed to grow to >80% confluency. The back of a rubber scraper was then used to scratch each plate, creating a uniform linear wound across each well. Cells were then rinsed with media to remove non-adherent cells and drugs at indicated concentrations were added. Media aliquots were taken at 1, 3, 6, or 16 hrs and spun down at 6,250 rpm for 10 minutes. Supernatants were then collected and stored at −4 ° C. until assayed using the VEGF Quantiglo Immunoassay (Research and Development Systems) according to kit instructions.

intracellular peroxides = assay: Pro-oxidant production (DCFH-DA fluorescence); assay type: cell-based
Procedure: Production of intracellular peroxides was monitored spectrofluorometrically using dichlorofluorescein diacetate (DCFH-DA) as a fluorescent dye. Cell suspensions were treated with DCFH-DA at a final concentration of 100 μM in the medium. Oxidation of DCFH by peroxides yields dichlorofluorescein (DCF). Fluorescence was monitored at the excitation and emission wavelengths of 485 and 530 nm, respectively, using a fluorescence plate reader (50 cycles per 20 s at 37° C.) (Biotek Synergy HT®). Hydrogen peroxide (μM) was determined based on fluorescence generated from a hydrogen peroxide standard curve.
Apatone production of hydrogen peroxide was determined based a standard curve. Serial dilutions of Apatone (1000/10, 500/5, 250/2.5, 125/1.25, and 62.5/0.625) were then added to cells pre-treated with DCF-DA and read over a series of time points (1, 3, 5, and 24 hrs).

Keratinocytes = assay: Scratch wound assay, keratinocytes; assay type: cell-based; settings: compared with fibroblast data
Procedure: (§1) A scratch wound assay was employed to evaluate the in vitro wound healing capacity of APATONE® and TOLECINE®. For the scratch-wound assay, cells were seeded on 6-well culture plates. At 80% cell confluence, a scratch-wound was produced using a sterile pipette tip and the size of the gap was measured and set to 100%. The cells were treated with test agents at various concentrations and the closing of the scratch-wound was measured at 24, 48, and 72 hrs. This experiment was performed three times for each cell line. Human foreskin fibroblasts were employed to optimize the assay because of the involvement of fibroblasts in wound healing. Human skin fibroblasts were scratched and then sham treated or treated with VC alone or APATONE® for 24 hrs.
Keratinocytes were grown to 90% confluence and then scratched to generate a wound. Cells were then treated with sham (fresh media) or a single dose of APATONE® at 75 μM sodium ascorbate and 0.75 μM menadione sodium bisulfate. […] Without being limited by any theory, the decreased closure of APATONE® during the second 24 hrs probably reflects metabolism of the vitamins by the keratinocytes.

[2] = tested on: Human foreskin fibroblasts; assay: Scratch wound assay, fibroblasts; assay type: cell-based
Procedure: as §1

[3] = tested on: MatTek EPIDERMFT™ (Full Thickness skin) tissue; assay: MatTek EPIDERM MTT Viability Assay (dermal irritation potential); assay type: cell-based, Human
Procedure: The MatTek EPIDERM™ MTT Viability Assay was employed as a quantitative method for assessing the dermal irritation potential of TOLECINE®. MatTek EPIDERMFT™ (Full Thickness skin) tissue samples were treated with TOLECINE® (neat) or a positive control (1% Triton X-100) for various exposure times ranging from 1 to 24 hrs. Negative controls (undosed tissues) were tested for 8 hrs only. Following treatment, the viability of the tissues were determined using MTT uptake and conversion and the absorbance of each sample was measured at 540 nm using a reference wavelength of 690 nm. The viability was then expressed as a percent of control values. The mean percent of each time point was used to calculate an ET50, which represented the time at which the EPIDERMFT™ tissue viability was reduced 50% compared to the control tissue.

prostaglandin E2 (PGE-2) = assay: PGE-2 ELISA in EPIDERMFT assay medium; assay type: cell-based, Human; settings: 24 hr exposure; negative control 6.1 ng/mL
Procedure: (§2) Enzyme-linked immunosorbent assay (ELISA) kits were used to test for the presence of the cytokine interleukin-1 alpha (IL-1α) and the inflammatory mediator prostaglandin E2 (PGE-2) in the assay medium. Approximately 1 mL of the media from beneath the tissue millicells were sampled at the end of dosing and incubation. The assays were conducted according to the manufacturer's directions on both undiluted samples and samples diluted to 10% in order to obtain the detectable protein range of the ELISA kits. Protein standards were run with both ELISAs in order to derive standard curves.

[4] = tested on: interleukin-1 alpha (IL-1α); assay: IL-1α ELISA in EPIDERMFT assay medium; assay type: cell-based, Human; settings: 24 hr exposure; negative control 8.156 pg/mL
Procedure: as §2

Oc1ccc(C#Cc2ccc(O)cc2)cc1 [TOLECINE®, 4,4′-(ethyne-1,2-diyl)diphenol] was tested, and the wound closure ([1]; 2.5% in glycerin) was 93%, the wound closure ([1]; 5% TOLECINE® in glycerin) was 87% and the “VEGF” value (VEGF; 10 μM, 1 hr, sham 12.4) was 32.6 pg/mL. For the same molecule, the “VEGF” value (VEGF; 10 μM, 3 hrs, sham 13.2) was 29.4 pg/mL, the “VEGF” value (VEGF; 10 μM, 6 hrs, sham 42.0) was 120 pg/mL and the “VEGF” value (VEGF; 10 μM, 6 hrs, sham 42.0, listed as TOL) was 120.7 pg/mL. The “VEGF” value (VEGF; 10 μM, 16 hrs, sham 67.4) was 237 pg/mL, the “VEGF” value (VEGF; 10 μM, 16 hrs, sham 67.4, listed as TOL) was 237.2 pg/mL and the “VEGF production, early time course” value (VEGF; 10 μM, first 3 hrs) was “lag in VEGF production”. The “VEGF” value (VEGF; 20 μM, 1 hr, sham 12.4) was 121.2 pg/mL, the “VEGF” value (VEGF; 20 μM, 3 hrs, sham 13.2) was 148.7 pg/mL and the “VEGF” value (VEGF; 20 μM, 6 hrs, sham 42.0) was 225 pg/mL. For the same molecule, the “VEGF” value (VEGF; 20 μM, 6 hrs, sham 42.0, listed as TOL) was 225.9 pg/mL, the “VEGF” value (VEGF; 20 μM, 16 hrs, sham 67.4) was 457 pg/mL and the “VEGF” value (VEGF; 20 μM, 16 hrs, sham 67.4, listed as TOL) was 457.2 pg/mL. The “hydrogen peroxide production, dose dependence” value (intracellular peroxides; FIGS. 4-6) was “dose dependent”, the “hydrogen peroxide production over time” value (intracellular peroxides; keratinocytes exposed for 5 hrs or more) was “continued to increase” and the “wound closure in keratinocytes” value (Keratinocytes) was “closely approximated that observed with fibroblasts”. For the same molecule, the wound closure ([2]; 2.5 μM, 24 hrs, sham 30%) was 85%, the wound closure ([2]; 2.5 μM, 48 hrs, sham 80%) was 100% and the wound closure ([2]; 5 μM, 24 hrs, sham 30%) was 85%. The wound closure ([2]; 5 μM, 48 hrs, sham 80%) was 100%, the wound closure ([2]; 10 μM, 24 hrs, sham 30%) was 100% and the “ET50 (time at which tissue viability was reduced 50% compared to control)” value ([3]; human) was “greater than 24 hrs”. It also gave a PGE-2 levels (prostaglandin E2 (PGE-2)) of 9.5 ng/mL.
For O=C1O[C@H]([C@@H](O)CO)C(O)=C1O [VC, L-ascorbic acid, reference compound], the “width of the scratch” value ([2]; 2,000 μM VC, at 24 hrs, 28.0 μm immediately after scratching (sham 15.8 to 8.3 μm)) was 16.9 μm, the “activity in scratch wound assay” value ([2]; VC alone at 75 μM) was “not active” and the wound closed ([2]; fibroblasts, after 24 hrs, FIG. 1 (VC 2000 μM), sham about 57%) was “about 43%”.
Oc1ccc(C=Cc2cc(O)cc(O)c2)cc1 [resveratrol, reference compound] was tested, and the “VEGF production compared with TOLECINE®” value (VEGF; 20 μM each) was “less than the VEGF production by TOLECINE® at 20 μM”, the “VEGF” value (VEGF; resveratrol 20 μM, 1 hr, sham 12.4) was 139.0 pg/mL and the “VEGF” value (VEGF; resveratrol 20 μM, 3 hrs, sham 13.2) was 166.7 pg/mL. For the same molecule, the “VEGF” value (VEGF; resveratrol 20 μM, 6 hrs, sham 42.0) was 196 pg/mL, the “VEGF” value (VEGF; resveratrol 20 μM, 6 hrs, sham 42.0, listed as RES) was 196.0 pg/mL and the “VEGF” value (VEGF; resveratrol 20 μM, 16 hrs, sham 67.4) was 274 pg/mL. For the same molecule, the “VEGF” value (VEGF; resveratrol 20 μM, 16 hrs, sham 67.4, listed as RES) was 274.1 pg/mL.
For “Triton X-100 [positive control, reference compound]”, the IL-1α levels [4] was 168 pg/mL, the “ET50 (time at which tissue viability was reduced 50% compared to control)” value ([3]; TOLECINE® neat, positive control 1% Triton X-100, exposure 1 to 24 hrs, MTT) was 10.4 h and the PGE-2 levels (prostaglandin E2 (PGE-2)) was 1211 ng/mL.
